From US20240158446A1, “CYCLIC COMPOUND HAVING SELECTIVE INHIBITORY ACTION ON KRAS OVER HRAS AND NRAS” (CHUGAI SEIYAKU KABUSHIKI KAISHA, priority 2021, published 2024)

Tests used:
[1] = biological target: GDP-bound NRAS wild-type protein (Homo sapiens, UniProt P01111); assay: Binding to NRAS by surface plasmon resonance (SPR), Single Cycle Kinetics; conditions: SPR, GDP-bound NRAS wild-type protein vs GDP-bound KRAS wild-type protein
[2] = biological target: GDP-bound HRAS wild-type protein (Homo sapiens, UniProt P01112); assay: Binding to HRAS by surface plasmon resonance (SPR), Single Cycle Kinetics; conditions: SPR, GDP-bound HRAS wild-type protein vs GDP-bound KRAS wild-type protein
Chain of GDP-bound HRAS wild-type protein (P01112 whole entry): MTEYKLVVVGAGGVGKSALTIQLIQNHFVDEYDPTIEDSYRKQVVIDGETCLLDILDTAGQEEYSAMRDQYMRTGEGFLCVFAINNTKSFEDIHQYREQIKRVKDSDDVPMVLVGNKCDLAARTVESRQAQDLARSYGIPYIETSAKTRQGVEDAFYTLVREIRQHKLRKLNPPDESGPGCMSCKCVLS

[3] = biological target: GDP-bound KRAS wild-type protein (Homo sapiens, UniProt P01116); assay: Binding to KRAS by surface plasmon resonance (SPR), Single Cycle Kinetics; conditions: SPR Single Cycle Kinetics, GDP-bound KRAS wild-type protein, 1:1 binding model; read-out: KRAS KD
Chain of GDP-bound KRAS wild-type protein (P01116 whole entry): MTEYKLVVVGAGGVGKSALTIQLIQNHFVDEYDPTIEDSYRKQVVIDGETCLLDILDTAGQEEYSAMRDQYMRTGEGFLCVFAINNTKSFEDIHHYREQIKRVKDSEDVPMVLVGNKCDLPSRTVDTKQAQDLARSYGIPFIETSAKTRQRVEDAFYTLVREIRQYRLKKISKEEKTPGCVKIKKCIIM

Chain of GDP-bound NRAS wild-type protein (P01111 whole entry): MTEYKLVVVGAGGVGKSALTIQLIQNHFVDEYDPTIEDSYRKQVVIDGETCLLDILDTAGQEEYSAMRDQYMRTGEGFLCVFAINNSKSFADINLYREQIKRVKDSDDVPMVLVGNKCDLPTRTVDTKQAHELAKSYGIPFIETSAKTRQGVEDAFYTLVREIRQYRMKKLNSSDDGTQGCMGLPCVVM

SMILES	NRAS/KRAS (ratio of KD value with respect to NRAS to KD value with respect to KRAS) [1]	HRAS/KRAS (ratio of KD value with respect to HRAS to KD value with respect to KRAS) [2]	Kd [3] [nM]
CC[C@H](C)[C@@H]1NC(=O)[C@H](CC(C)C)N(C)C(=O)C[C@@H](C(=O)N2CCOCC2)N(C)C(=O)[C@H](CC(F)(F)F)N(C)C(=O)C2(CCCC2)NC(=O)[C@@H]2CCCN2C(=O)[C@H](CCc2cc(F)c(C(F)(F)F)c(F)c2)NC(=O)CN(C)C(=O)[C@H](Cc2ccc(C(F)(F)F)cc2)N2CCCC[C@@H](C2=O)N(C)C(=O)CN(C)C1=O [PP0568]	B (a compound having 3 or more and less than 10 is denoted as B)	B (a compound having 3 or more and less than 10 is denoted as B)	1.1
CC[C@H](C)[C@@H]1NC(=O)[C@H](CC(C)C)N(C)C(=O)C[C@@H](C(=O)N(C)C)N(C)C(=O)[C@H](C2CCCC2)N(C)C(=O)C2(CCCC2)NC(=O)[C@@H]2CCCN2C(=O)[C@H](CCc2cc(F)c(C(F)(F)F)c(F)c2)NC(=O)CN(C)C(=O)[C@H](Cc2ccc(C(F)(F)F)cc2)N2CCCC[C@@H](C2=O)N(C)C(=O)CN(C)C1=O [PP0569]	C (A compound having a KD ratio of 0.1 or more and less than 3 is denoted as C)	B (a compound having 3 or more and less than 10 is denoted as B)	0.034
CC[C@H](C)[C@@H]1NC(=O)[C@H](CC(C)C)N(C)C(=O)C[C@@H](C(=O)N2CCC2)N(C)C(=O)[C@H](C2CCCC2)N(C)C(=O)C2(CCCC2)NC(=O)[C@@H]2CCCN2C(=O)[C@H](CCc2cc(F)c(C(F)(F)F)c(F)c2)NC(=O)CN(C)C(=O)[C@H](Cc2ccc(C(F)(F)F)cc2)N2CCCC[C@@H](C2=O)N(C)C(=O)CN(C)C1=O [PP0570]	B (a compound having 3 or more and less than 10 is denoted as B)	B (a compound having 3 or more and less than 10 is denoted as B)	0.046
CC[C@H](C)[C@@H]1NC(=O)[C@H](CC(C)C)N(C)C(=O)C[C@@H](C(=O)N2CCCC2)N(C)C(=O)[C@H](C2CCCC2)N(C)C(=O)C2(CCCC2)NC(=O)[C@@H]2CCCN2C(=O)[C@H](CCc2cc(F)c(C(F)(F)F)c(F)c2)NC(=O)CN(C)C(=O)[C@H](Cc2ccc(C(F)(F)F)cc2)N2CCCC[C@@H](C2=O)N(C)C(=O)CN(C)C1=O [PP0571]	B (a compound having 3 or more and less than 10 is denoted as B)	B (a compound having 3 or more and less than 10 is denoted as B)	0.05
CC[C@H](C)[C@@H]1NC(=O)[C@H](CC(C)C)N(C)C(=O)C[C@@H](C(=O)N2CCCCC2)N(C)C(=O)[C@H](C2CCCC2)N(C)C(=O)C2(CCCC2)NC(=O)[C@@H]2CCCN2C(=O)[C@H](CCc2cc(F)c(C(F)(F)F)c(F)c2)NC(=O)CN(C)C(=O)[C@H](Cc2ccc(C(F)(F)F)cc2)N2CCCC[C@@H](C2=O)N(C)C(=O)CN(C)C1=O [PP0572]	B (a compound having 3 or more and less than 10 is denoted as B)	B (a compound having 3 or more and less than 10 is denoted as B)	0.14
CC[C@H](C)[C@@H]1NC(=O)[C@H](CC(C)C)N(C)C(=O)C[C@@H](C(=O)N(C)C)N(C)C(=O)[C@H](C2CCCC2)N(C)C(=O)C2(CCC2)NC(=O)[C@@H]2CCCN2C(=O)[C@H](CCc2cc(F)c(C(F)(F)F)c(F)c2)NC(=O)CN(C)C(=O)[C@H](Cc2ccc(C(F)(F)F)cc2)N2CCCC[C@@H](C2=O)N(C)C(=O)CN(C)C1=O [PP0574]	C (A compound having a KD ratio of 0.1 or more and less than 3 is denoted as C)	B (a compound having 3 or more and less than 10 is denoted as B)	0.026
CC[C@H](C)[C@@H]1NC(=O)[C@H](CC(C)C)N(C)C(=O)C[C@@H](C(=O)N2CCOCC2)N(C)C(=O)[C@H](C2CCCC2)N(C)C(=O)C2(CCC2)NC(=O)[C@@H]2CC(F)(F)CN2C(=O)[C@H](CCc2cc(F)c(C(F)(F)F)c(F)c2)NC(=O)CN(C)C(=O)[C@H](Cc2ccc(C(F)(F)F)cc2)N2CCCC[C@@H](C2=O)N(C)C(=O)CN(C)C1=O [PP0575]	B (a compound having 3 or more and less than 10 is denoted as B)	B (a compound having 3 or more and less than 10 is denoted as B)	0.023
CC[C@H](C)[C@@H]1NC(=O)[C@H](CC(C)C)N(C)C(=O)C[C@@H](C(=O)N(C)C)N(C)C(=O)[C@H](C2CCCC2)N(C)C(=O)C2(CCCC2)NC(=O)[C@@H]2CC(F)(F)CN2C(=O)[C@H](CCc2cc(F)c(C(F)(F)F)c(F)c2)NC(=O)CN(C)C(=O)[C@H](Cc2ccc(C(F)(F)F)cc2)N2CCCC[C@@H](C2=O)N(C)C(=O)CN(C)C1=O [PP0576]	C (A compound having a KD ratio of 0.1 or more and less than 3 is denoted as C)	B (a compound having 3 or more and less than 10 is denoted as B)	0.019
CC[C@H](C)[C@@H]1NC(=O)[C@H](CC(C)C)N(C)C(=O)C[C@@H](C(=O)N(C)C)N(C)C(=O)[C@H](C2CCCC2)N(C)C(=O)C2(CCC2)NC(=O)[C@@H]2CC(F)(F)CN2C(=O)[C@H](CCc2cc(F)c(C(F)(F)F)c(F)c2)NC(=O)CN(C)C(=O)[C@H](Cc2ccc(C(F)(F)F)cc2)N2CCCC[C@@H](C2=O)N(C)C(=O)CN(C)C1=O [PP0577]	C (A compound having a KD ratio of 0.1 or more and less than 3 is denoted as C)	C (A compound having a KD ratio of 0.1 or more and less than 3 is denoted as C)	0.019
CCO[C@@H]1C[C@H]2C(=O)NC3(CCC3)C(=O)N(C)[C@@H](C3CCCC3)C(=O)N(C)[C@H](C(=O)N3CCOCC3)CC(=O)N(C)[C@@H](CC(C)C)C(=O)N[C@@H]([C@@H](C)CC)C(=O)N(C)CC(=O)N(C)[C@H]3CCCCN(C3=O)[C@@H](Cc3ccc(C(F)(F)F)cc3)C(=O)N(C)CC(=O)N[C@@H](CCc3cc(F)c(C(F)(F)F)c(F)c3)C(=O)N2C1 [PP0578]	B (a compound having 3 or more and less than 10 is denoted as B)	B (a compound having 3 or more and less than 10 is denoted as B)	0.029
CCO[C@@H]1C[C@H]2C(=O)NC3(CCCC3)C(=O)N(C)[C@@H](C3CCCC3)C(=O)N(C)[C@H](C(=O)N(C)C)CC(=O)N(C)[C@@H](CC(C)C)C(=O)N[C@@H]([C@@H](C)CC)C(=O)N(C)CC(=O)N(C)[C@H]3CCCCN(C3=O)[C@@H](Cc3ccc(C(F)(F)F)cc3)C(=O)N(C)CC(=O)N[C@@H](CCc3cc(F)c(C(F)(F)F)c(F)c3)C(=O)N2C1 [PP0579]	C (A compound having a KD ratio of 0.1 or more and less than 3 is denoted as C)	B (a compound having 3 or more and less than 10 is denoted as B)	0.017
CCO[C@@H]1C[C@H]2C(=O)NC3(CCC3)C(=O)N(C)[C@@H](C3CCCC3)C(=O)N(C)[C@H](C(=O)N(C)C)CC(=O)N(C)[C@@H](CC(C)C)C(=O)N[C@@H]([C@@H](C)CC)C(=O)N(C)CC(=O)N(C)[C@H]3CCCCN(C3=O)[C@@H](Cc3ccc(C(F)(F)F)cc3)C(=O)N(C)CC(=O)N[C@@H](CCc3cc(F)c(C(F)(F)F)c(F)c3)C(=O)N2C1 [PP0580]	C (A compound having a KD ratio of 0.1 or more and less than 3 is denoted as C)	C (A compound having a KD ratio of 0.1 or more and less than 3 is denoted as C)	0.015
CC[C@H](C)[C@@H]1NC(=O)[C@H](C)N(C)C(=O)C[C@@H](C(=O)N(C)C)N(C)C(=O)[C@H](C2CCCC2)N(C)C(=O)C2(CCC2)NC(=O)[C@@H]2CCCN2C(=O)[C@H](CCc2cc(F)c(C(F)(F)F)c(F)c2)NC(=O)CN(C)C(=O)[C@H](Cc2ccc(C(F)(F)F)cc2)N2CCCC[C@@H](C2=O)N(C)C(=O)CN(C)C1=O [PP0581]	C (A compound having a KD ratio of 0.1 or more and less than 3 is denoted as C)	B (a compound having 3 or more and less than 10 is denoted as B)	0.02
CC[C@H](C)[C@@H]1NC(=O)[C@H](C)N(C)C(=O)C[C@@H](C(=O)N2CCOCC2)N(C)C(=O)[C@H](C2CCCC2)N(C)C(=O)C2(CCC2)NC(=O)[C@@H]2CC(F)(F)CN2C(=O)[C@H](CCc2cc(F)c(C(F)(F)F)c(F)c2)NC(=O)CN(C)C(=O)[C@H](Cc2ccc(C(F)(F)F)cc2)N2CCCC[C@@H](C2=O)N(C)C(=O)CN(C)C1=O [PP0582]	C (A compound having a KD ratio of 0.1 or more and less than 3 is denoted as C)	B (a compound having 3 or more and less than 10 is denoted as B)	0.02
